ChEMBL document CHEMBL5150053, “Carboxymethyl tethered poly(disubstituted)triazoles built on nucleoside skeletons: A unique class of ribonuclease A inhibitors designed using chemical logic” (Bioorg Med Chem, 2022)
Activity calls are given as the source filed them. The rule behind the calls is not given here.

Experiments:
[1] = Competitive inhibition of bovine pancreatic RNase A using 2',3'-cCMP as substrate assessed as inhibition constant by spectrophotometric analysis; design: species or system Bos taurus
[2] = organism: Bos taurus; assay: Inhibition of bovine pancreatic RNase A using tRNA as substrate assessed as substrate degradation preincubated with compound for 3 hrs followed by substrate addition and measured after 30 mins by ethidium bromide staining based agarose gel electrophoresis analysis; conditions: time 3.5 hrs
[3] = Competitive reversible inhibition of bovine pancreatic RNase A using 2',3'-cCMP as substrate assessed as inhibition constant by spectrophotometric analysis; design: species or system Bos taurus
[4] = Linear mixed type inhibition of bovine pancreatic RNase A using 2',3'-cCMP as substrate assessed as inhibition constant by spectrophotometric analysis; design: species or system Bos taurus
[5] = Hyperbolic partial competitive inhibition of bovine pancreatic RNase A using 2',3'-cCMP as substrate assessed as inhibition constant by spectrophotometric analysis; design: species or system Bos taurus
[6] = organism: Bos taurus; assay: Uncompetitive inhibition of bovine pancreatic RNase A using 2',3'-cCMP as substrate assessed as Michaelis-Menten constant (Km) by Lineweaver-burk plot analysis (reference value: 9.35 x 10^-4 M)
[7] = Uncompetitive inhibition of bovine pancreatic RNase A using 2',3'-cCMP as substrate assessed as inhibition constant by spectrophotometric analysis; design: species or system Bos taurus

Structure (SMILES)	Ki [1] [µM]	inhibition [2]	Ki [3] [µM]	other results
O=C(O)c1nnn(C[C@H]2O[C@@H](OCc3cn(CCS(=O)(=O)O)nn3)[C@H](O)[C@@H]2O)c1C(=O)O	–	–	46	–
Cc1cn([C@H]2C[C@H](OCc3cn(CC(=O)O)nn3)[C@@H](CO)O2)c(=O)n(Cc2cn(CC(=O)O)nn2)c1=O	352	Active	–	–
Cc1cn([C@H]2C[C@H](S(=O)(=O)O)[C@@H](CO)O2)c(=O)[nH]c1=O	–	–	2.08	–
O=C(O)Cn1cc(COC[C@H]2O[C@@H](n3ccc(=O)n(Cc4cn(CC(=O)O)nn4)c3=O)[C@H](O)[C@@H]2O)nn1	198	Active	–	–
Nc1ccn([C@@H]2O[C@H](CO)[C@@H](S(=O)(=O)CC(=O)O)[C@H]2O)c(=O)n1	–	–	1.75	–
Cc1cn([C@H]2C[C@H](OCc3cn(CC(=O)O)nn3)[C@@H](COCc3cn(CC(=O)O)nn3)O2)c(=O)n(Cc2cn(CC(=O)O)nn2)c1=O	–	Active	–	Ki [5]: 2.3 µM
Cc1cn([C@H]2C[C@H](O)[C@@H](CO)O2)c(=O)n(Cc2cn(CC(=O)O)nn2)c1=O	–	Active	–	Km [6]: 585 µM; Ki [7]: 232 µM

Second part, led by results:

Ki [1] [µM]	inhibition [2]	Ki [3] [µM]	Structure (SMILES)	other results
55.4	Active	–	O=C(O)Cn1cc(Cn2c(=O)ccn([C@@H]3O[C@H](CO)[C@@H](O)[C@H]3O)c2=O)nn1	–
74.1	Active	–	O=C(O)Cn1cc(COC[C@H]2O[C@@H](n3ccc(=O)n(Cc4cn(CC(=O)O)nn4)c3=O)[C@H](OCc3cn(CC(=O)O)nn3)[C@@H]2OCc2cn(CC(=O)O)nn2)nn1	–
–	–	0.96	O=c1ccn([C@@H]2O[C@H](CO)[C@@H](S(=O)(=O)O)[C@@H]2O)c(=O)[nH]1	–
–	Active	–	Cc1cn([C@H]2C[C@H](OCc3cn(CC(=O)O)nn3)[C@@H](COCc3cn(CC(=O)O)nn3)O2)c(=O)[nH]c1=O	Ki [4]: 211 µM
–	–	29	O=S(=O)(O)CCn1cc(CO[C@@H]2O[C@H](Cn3cc(CS(=O)(=O)O)nn3)[C@@H](O)[C@H]2O)nn1	–
–	–	2	O=C(O)CS(=O)(=O)[C@H]1[C@@H](O)[C@H](n2ccc(=O)[nH]c2=O)O[C@@H]1CO	–
